Experimental data from patent publication US9611267B2, “Substituted tricyclic compounds as FGFR inhibitors” (Incyte Corporation, priority 2012, dated 2017).

What was measured:
Type in all cases: biochemical
[1] = biological target: FGFR1 (Homo sapiens (Human), UniProt P11362); experiment: FGFR enzymatic assay (FRET peptide phosphorylation), FGFR1; conditions: FGFR1 enzyme 0.02 nM, ATP 210 μM
Method in brief: (§1)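 IC50 values were obtained from variable-slope sigmoidal dose-response fitting of a FRET read-out of peptide phosphorylation. The buffer, described for FGFR3, was 50 mM HEPES pH 7.5 with MgCl2, EGTA, Tween-20 and DTT.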

[2] = biological target: FGFR2 (Homo sapiens (Human), UniProt P21802); experiment: FGFR enzymatic assay (FRET peptide phosphorylation), FGFR2; conditions: FGFR2 enzyme 0.01 nM, ATP 100 μM
Method in brief: as §1

[3] = biological target: FGFR3 (Homo sapiens (Human), UniProt P22607); experiment: FGFR enzymatic assay (FRET peptide phosphorylation), FGFR3; conditions: FGFR3 enzyme (Millipore), ATP 140 μM
Method in brief: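 After 5-10 min pre-incubation of FGFR3 with serially diluted compound in pH 7.5 HEPES/MgCl2/EGTA/DTT buffer, the reaction proceeded 1 hr at 25° C. Phosphorylated peptide was detected by FRET, and IC50 was fitted with a variable-slope sigmoid.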

Chain of FGFR2 (P21802 22-821): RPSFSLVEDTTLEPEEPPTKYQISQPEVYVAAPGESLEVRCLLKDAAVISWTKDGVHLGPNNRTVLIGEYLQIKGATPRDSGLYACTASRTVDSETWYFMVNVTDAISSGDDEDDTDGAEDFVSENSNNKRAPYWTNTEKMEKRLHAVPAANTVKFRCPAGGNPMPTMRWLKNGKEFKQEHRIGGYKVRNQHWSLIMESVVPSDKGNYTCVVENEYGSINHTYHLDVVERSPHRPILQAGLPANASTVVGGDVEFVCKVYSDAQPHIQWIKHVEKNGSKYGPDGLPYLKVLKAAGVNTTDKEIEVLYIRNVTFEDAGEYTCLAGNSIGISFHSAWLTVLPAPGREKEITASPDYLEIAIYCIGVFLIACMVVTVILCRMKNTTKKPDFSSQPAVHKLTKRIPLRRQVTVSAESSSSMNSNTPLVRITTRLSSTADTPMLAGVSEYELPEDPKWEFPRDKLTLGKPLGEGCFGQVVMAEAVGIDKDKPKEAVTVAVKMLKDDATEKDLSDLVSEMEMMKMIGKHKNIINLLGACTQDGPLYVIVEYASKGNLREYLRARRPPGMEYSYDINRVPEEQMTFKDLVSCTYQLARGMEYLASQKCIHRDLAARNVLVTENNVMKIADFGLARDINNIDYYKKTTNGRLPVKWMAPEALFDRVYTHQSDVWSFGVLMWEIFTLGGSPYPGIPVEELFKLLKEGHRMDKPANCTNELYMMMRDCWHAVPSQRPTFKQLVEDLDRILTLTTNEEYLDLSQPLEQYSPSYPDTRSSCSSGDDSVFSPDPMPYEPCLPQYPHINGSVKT
Chain of FGFR3 (P22607 23-806): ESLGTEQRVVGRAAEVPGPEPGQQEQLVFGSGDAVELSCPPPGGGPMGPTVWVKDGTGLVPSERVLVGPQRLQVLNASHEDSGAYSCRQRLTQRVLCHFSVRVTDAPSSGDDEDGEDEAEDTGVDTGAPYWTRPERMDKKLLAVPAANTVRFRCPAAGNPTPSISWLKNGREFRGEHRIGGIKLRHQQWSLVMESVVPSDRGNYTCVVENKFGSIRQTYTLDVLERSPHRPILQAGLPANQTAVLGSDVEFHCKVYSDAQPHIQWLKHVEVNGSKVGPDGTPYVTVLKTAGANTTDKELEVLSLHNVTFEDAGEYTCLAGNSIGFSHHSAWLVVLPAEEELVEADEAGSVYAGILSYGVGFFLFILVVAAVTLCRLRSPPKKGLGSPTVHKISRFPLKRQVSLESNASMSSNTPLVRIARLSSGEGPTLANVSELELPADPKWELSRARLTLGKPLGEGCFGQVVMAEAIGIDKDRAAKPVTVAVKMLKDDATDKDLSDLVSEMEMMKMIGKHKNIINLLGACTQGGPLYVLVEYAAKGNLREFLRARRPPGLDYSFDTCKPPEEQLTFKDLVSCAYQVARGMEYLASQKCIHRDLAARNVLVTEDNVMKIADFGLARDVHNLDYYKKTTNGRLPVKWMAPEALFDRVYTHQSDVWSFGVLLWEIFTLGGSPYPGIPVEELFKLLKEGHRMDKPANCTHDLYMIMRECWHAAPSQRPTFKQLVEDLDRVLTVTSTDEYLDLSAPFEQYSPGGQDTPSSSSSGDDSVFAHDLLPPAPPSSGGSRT
Chain of FGFR1 (P11362 22-822): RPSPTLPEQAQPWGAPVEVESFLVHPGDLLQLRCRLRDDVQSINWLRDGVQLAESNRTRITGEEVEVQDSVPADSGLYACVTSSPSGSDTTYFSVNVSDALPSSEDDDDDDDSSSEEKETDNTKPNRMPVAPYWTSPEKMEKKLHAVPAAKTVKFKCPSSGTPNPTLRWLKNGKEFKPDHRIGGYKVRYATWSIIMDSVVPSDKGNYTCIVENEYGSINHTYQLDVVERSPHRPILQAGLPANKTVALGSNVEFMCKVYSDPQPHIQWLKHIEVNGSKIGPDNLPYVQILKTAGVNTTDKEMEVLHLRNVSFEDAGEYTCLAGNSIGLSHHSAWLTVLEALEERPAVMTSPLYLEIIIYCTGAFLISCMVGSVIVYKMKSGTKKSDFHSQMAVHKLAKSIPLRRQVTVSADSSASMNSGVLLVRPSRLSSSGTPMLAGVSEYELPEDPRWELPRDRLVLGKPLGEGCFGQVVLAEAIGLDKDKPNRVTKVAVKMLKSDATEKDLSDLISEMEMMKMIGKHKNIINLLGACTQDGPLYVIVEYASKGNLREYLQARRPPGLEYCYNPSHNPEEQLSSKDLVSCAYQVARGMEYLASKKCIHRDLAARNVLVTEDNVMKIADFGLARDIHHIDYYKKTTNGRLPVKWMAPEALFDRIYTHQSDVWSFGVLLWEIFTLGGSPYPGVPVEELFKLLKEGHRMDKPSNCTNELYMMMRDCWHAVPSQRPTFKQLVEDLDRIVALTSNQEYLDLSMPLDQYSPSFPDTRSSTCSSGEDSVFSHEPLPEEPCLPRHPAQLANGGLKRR

SMILES | IC50 [1] [nM] | IC50 [2] [nM] | IC50 [3] [nM]
COc1cc(OC)c(F)c(N2Cc3cnc4[nH]c(CCN5CCOCC5)cc4c3N(c3ccccc3F)C2=O)c1F [Example 196, 3-(2,6-difluoro-3,5-dimethoxyphenyl)-1-(2-fluorophenyl)-8-(2-morpholin-4-ylethyl)-1,3,4,7-tetrahydro-2H-pyrrolo[3′,2′:5,6]pyrido[4,3-d]pyrimidin-2-one] | < 100 | < 100 | < 100
COc1cc(CN2C(=O)N(c3c(F)c(OC)cc(OC)c3F)Cc3cnc4[nH]c(CN5CCOCC5)cc4c32)ccn1 [Example 202, 3-(2,6-difluoro-3,5-dimethoxyphenyl)-1-[(2-methoxypyridin-4-yl)methyl]-8-(morpholin-4-ylmethyl)-1,3,4,7-tetrahydro-2H-pyrrolo[3′,2′:5,6]pyrido[4,3-d]pyrimidin-2-one] | < 100 | < 100 | < 100
COc1cc(OC)c(F)c(N2Cc3cnc4[nH]c(CN5CCOCC5)cc4c3N(c3cnn(C)c3)C2=O)c1F [Example 203, 3-(2,6-difluoro-3,5-dimethoxyphenyl)-1-(1-methyl-1H-pyrazol-4-yl)-8-(morpholin-4-ylmethyl)-1,3,4,7-tetrahydro-2H-pyrrolo[3′,2′:5,6]pyrido[4,3-d]pyrimidin-2-one] | < 100 | < 100 | < 100
COc1cc(OC)c(F)c(N2Cc3cnc4[nH]c(CN5CCN(C)CC5)cc4c3N(c3cnn(C)c3)C2=O)c1F [Example 204, 3-(2,6-difluoro-3,5-dimethoxyphenyl)-8-[(4-methylpiperazin-1-yl)methyl]-1-(1-methyl-1H-pyrazol-4-yl)-1,3,4,7-tetrahydro-2H-pyrrolo[3′,2′:5,6]pyrido[4,3-d]pyrimidin-2-one] | < 100 | < 100 | < 100
CCN1CCN(Cc2cc3c4c(cnc3[nH]2)CN(c2c(F)c(OC)cc(OC)c2F)C(=O)N4c2cnn(C)c2)CC1 [Example 205, 3-(2,6-difluoro-3,5-dimethoxyphenyl)-8-[(4-ethylpiperazin-1-yl)methyl]-1-(1-methyl-1H-pyrazol-4-yl)-1,3,4,7-tetrahydro-2H-pyrrolo[3′,2′:5,6]pyrido[4,3-d]pyrimidin-2-one] | < 100 | < 100 | < 100
COc1cc(OC)c(F)c(N2Cc3cnc4[nH]c(CN5CC(O)C5)cc4c3C(C)(C)C2=O)c1F [Example 206, 7-(2,6-difluoro-3,5-dimethoxyphenyl)-2-[(3-hydroxyazetidin-1-yl)methyl]-9,9-dimethyl-3,6,7,9-tetrahydro-8H-pyrrolo[2,3-c]-2,7-naphthyridin-8-one] | < 100 | < 100 | < 100
COc1cc(OC)c(F)c(N2Cc3cnc4[nH]c(CN5CC(F)C5)cc4c3C(C)(C)C2=O)c1F [Example 207, 7-(2,6-difluoro-3,5-dimethoxyphenyl)-2-[(3-fluoroazetidin-1-yl)methyl]-9,9-dimethyl-3,6,7,9-tetrahydro-8H-pyrrolo[2,3-c]-2,7-naphthyridin-8-one] | < 100 | < 100 | < 100
COc1cc(OC)c(F)c(N2Cc3cnc4[nH]c(CN5CC(C#N)C5)cc4c3N(C)C2=O)c1F [Example 208, 1-{[3-(2,6-difluoro-3,5-dimethoxyphenyl)-1-methyl-2-oxo-2,3,4,7-tetrahydro-1H-pyrrolo[3′,2′:5,6]pyrido[4,3-d]pyrimidin-8-yl]methyl}azetidine-3-carbonitrile] | < 100 | < 100 | < 100
COc1cc(OC)c(F)c(N2Cc3cnc4[nH]c(CN5CC[C@@H](C#N)C5)cc4c3N(C)C2=O)c1F [Example 209, (3R)-1-{[3-(2,6-difluoro-3,5-dimethoxyphenyl)-1-methyl-2-oxo-2,3,4,7-tetrahydro-1H-pyrrolo[3′,2′:5,6]pyrido[4,3-d]pyrimidin-8-yl]methyl}pyrrolidine-3-carbonitrile] | < 100 | < 100 | < 100
COc1cc(OC)c(F)c(N2Cc3cnc4[nH]c(CCN5CC(F)C5)cc4c3N(CCO)C2=O)c1F [Example 210, 3-(2,6-difluoro-3,5-dimethoxyphenyl)-8-[2-(3-fluoroazetidin-1-yl)ethyl]-1-(2-hydroxyethyl)-1,3,4,7-tetrahydro-2H-pyrrolo[3′,2′:5,6]pyrido[4,3-d]pyrimidin-2-one] | < 100 | < 100 | < 100
COc1cc(OC)c(F)c(N2Cc3cnc4[nH]c(CN5CCOCC5)cc4c3N(c3cccc(F)c3)C2=O)c1F [Example 212, 3-(2,6-difluoro-3,5-dimethoxyphenyl)-1-(3-fluorophenyl)-8-(morpholin-4-ylmethyl)-1,3,4,7-tetrahydro-2H-pyrrolo[3′,2′:5,6]pyrido[4,3-d]pyrimidin-2-one] | < 100 | < 100 | < 100

The remaining lines, values ahead:

IC50 [1] [nM] | IC50 [2] [nM] | IC50 [3] [nM] | SMILES
< 100 | < 100 | < 100 | COc1cc(OC)c(F)c(N2Cc3cnc4[nH]c(CCN5CCN(C)CC5)cc4c3N(c3ccccc3F)C2=O)c1F [Example 197, 3-(2,6-difluoro-3,5-dimethoxyphenyl)-1-(2-fluorophenyl)-8-[2-(4-methylpiperazin-1-yl)ethyl]-1,3,4,7-tetrahydro-2H-pyrrolo[3′,2′:5,6]pyrido[4,3-d]pyrimidin-2-one]
< 100 | < 100 | < 100 | CCN1CCN(CCc2cc3c4c(cnc3[nH]2)CN(c2c(F)c(OC)cc(OC)c2F)C(=O)N4c2ccccc2F)CC1 [Example 198, 3-(2,6-difluoro-3,5-dimethoxyphenyl)-1-(2-fluorophenyl)-8-[2-(4-ethylpiperazin-1-yl)ethyl]-1,3,4,7-tetrahydro-2H-pyrrolo[3′,2′:5,6]pyrido[4,3-d]pyrimidin-2-one]
< 100 | < 100 | < 100 | COc1cc(OC)c(F)c(N2Cc3cnc4[nH]ncc4c3N(c3cccc(C(=O)NC(C)C)c3F)C2=O)c1F [Example 199, 3-[3-(2,6-difluoro-3,5-dimethoxyphenyl)-2-oxo-2,3,4,7-tetrahydro-1H-pyrazolo[4′,3′:5,6]pyrido[4,3-d]pyrimidin-1-yl]-2-fluoro-N-isopropylbenzamide]
< 100 | < 100 | < 100 | COc1cc(OC)c(F)c(N2Cc3cnc4[nH]ncc4c3N(c3cccc(C(=O)NC4CC4)c3F)C2=O)c1F [Example 200, N-cyclopropyl-3-[3-(2,6-difluoro-3,5-dimethoxyphenyl)-2-oxo-2,3,4,7-tetrahydro-1H-pyrazolo[4′,3′:5,6]pyrido[4,3-d]pyrimidin-1-yl]-2-fluorobenzamide]
< 100 | < 100 | < 100 | CCNC(=O)c1cccc(N2C(=O)N(c3c(F)c(OC)cc(OC)c3F)Cc3cnc4[nH]ncc4c32)c1F [Example 201, 3-[3-(2,6-difluoro-3,5-dimethoxyphenyl)-2-oxo-2,3,4,7-tetrahydro-1H-pyrazolo[4′,3′:5,6]pyrido[4,3-d]pyrimidin-1-yl]-N-ethyl-2-fluorobenzamide]
< 100 | < 100 | < 100 | COc1cc(OC)c(F)c(N2Cc3cnc4[nH]c(CN5CCOCC5)cc4c3N(c3cccc(F)c3F)C2=O)c1F [Example 211, 3-(2,6-difluoro-3,5-dimethoxyphenyl)-1-(2,3-difluorophenyl)-8-(morpholin-4-ylmethyl)-1,3,4,7-tetrahydro-2H-pyrrolo[3′,2′:5,6]pyrido[4,3-d]pyrimidin-2-one]
